Consider three molecules from patent publication US12662449B2 (NACUITY PHARMACEUTICALS, INC., priority 2017, dated 2026).

Each structure is given as a SMILES string.

Holding throughout (type): physicochemical
Series [1] can be described thus: Solubilization of NACA in ORA-SWEET and water. How it is done:
A study was conducted to determine the solubilization of NACA in ORA-SWEET® (Ora-Sweet is a commercially available syrup vehicle containing water, sucrose, glycerin, sorbitol, flavoring, buffering agents (citric acid and/or sodium phosphate), methyl paraben and potassium sorbate, pH 4.2 manufactured by Paddock Laboratories, Inc., Minneapolis, Minnesota). HPLC equipment and glass containers and stirrers were utilized.
Therefore, NACA was dissolved in 50 mL water followed by 50 mL Ora-Sweet, shaken to dissolve in an opaque plastic bottle with closure and provided to subject for self-administration (oral ingestion).

Series [2] is described as follows: Micronization of NACA and stability of the 1% NACA formulation. The text has this:
The relation between micronization conditions and an initial increase of the degradation product diNACA was further investigated. […] Therefore, the zirconium oxide milling process was further investigated and successfully optimized regarding particle size distribution, milling parameters and impurity profile for the 1% NACA formulation. […] The particle size distribution by laser diffraction analysis was ×10=1.3 μm, ×50=4.7 μm and ×90=12.3 μm. Batches were prepared and found to be stable for up to 4 weeks at ambient temperature.

Series [3] in a line: Oxidation of NACA on exposure to air. To be noted: exposed to air. An excerpt: These efforts to increase purity focused on the major impurities as measured by HPLC, namely, diNACA, DTT and cyclic DTT. […] Ethanol and methyl t-butyl Ether (MTBE) used in the reduction and solvent-exchange were degassed in an effort to reduce diNACA.
Series [4] can be described thus: Stability of NACA/excipient mixtures (excipient screening). To be noted: NACA/excipient mixtures after 4 weeks at 40° C./75% RH. As for the experimental part: NACA Tablets, 250 mg, are packaged in high density polyethylene (HDPE) bottles with foil induction seal and a white polyproplyene screw-top closure. Excipients used for the formulation meet compendial standards. Lactose functions as a filler. Microcrystalline cellulose functions as a filler. Croscarmellose Sodium functions as a disintegrant. Stearic Acid functions as a lubricant. Excipients were screened by assessing the stability of NACA in mixtures with each excipient.

A short description of series [5]: Stability and dissociation of NACA/urea co-crystal (secondary co-crystal screen). As for the experimental part:
NACA/Urea Co-crystal. A primary co-crystal screen was conducted where 28 potential co-crystal formers (CCFs) were screened (Table 18) in 6 solvent systems under 2 process relevant crystallization conditions, namely, thermal maturation and evaporation. A NACA/urea co-crystal was identified (FIG. 15). […] NMR analysis confirmed an approximate stoichiometric content of urea contained within the material. The material appeared to be stable under ambient conditions and elevated temperature (80° C.) but unstable when stored at high humidity for prolonged periods, showing degradation to the diNACA. […] An additional DSC experiment with post-XRPD analysis confirmed that the exothermic event observed during the DSC cooling cycle is a recrystallization to NACA.

Consider `CC(=O)N[C@@H](CS)C(N)=O`, for which, in series [1] (NACA at 80 mg/ml in ORA-SWEET), the “Stirring time required to achieve a solution” value is 20 to 30 min. The Dissolution in water result in series [1] (water, shaking for 30 seconds) is “readily dissolved”. Also, the “Change of degradation product diNACA on micronization” value in series [2] (stainless steel grinding jars) is on record as “time dependent increase of the degradation product diNACA”; in series [2] (zirconium oxide jars and balls) it was “did not lead to an initial increase of the degradation product diNACA”. The “Oxidation on exposure to air” value in series [3] was “Oxidation of NACA occurs”.
Turning to `CC(=O)N[C@H](CS)C(N)=O`, the “% Assay” value in series [4] was 95.3%.
With `CC(=O)N[C@@H](CS)C(N)=O.NC(N)=O` [NACA/urea pattern 1 material], the “Stability under ambient conditions and elevated temperature” value in series [5] (ambient conditions and 80° C.) is listed as “stable”. In series [5] (deionized water and solvent/water mixtures with a high water activity), the “Dissociation in water and high water activity mixtures” value is given as “found to dissociate”. Further, the “Dissociation in organic solvents and low water activity mixtures” value in series [5] (organic solvents and solvent/water mixtures with low water activity) is given as “No signs of dissociation”. In series [5] (stored at high humidity for prolonged periods, degradation to diNACA), the “Stability at high humidity” value is reported as “unstable”.
